The target in this experiment is T1, full-length human PKCι (Homo sapiens, UniProt P41743).
T1 construct: Recombinant, full-length human PKCι expressed in Sf21 insect cells is also commercially available; purchased; host or cells: Sf21 insect cells
T1 sequence (P41743 1-596): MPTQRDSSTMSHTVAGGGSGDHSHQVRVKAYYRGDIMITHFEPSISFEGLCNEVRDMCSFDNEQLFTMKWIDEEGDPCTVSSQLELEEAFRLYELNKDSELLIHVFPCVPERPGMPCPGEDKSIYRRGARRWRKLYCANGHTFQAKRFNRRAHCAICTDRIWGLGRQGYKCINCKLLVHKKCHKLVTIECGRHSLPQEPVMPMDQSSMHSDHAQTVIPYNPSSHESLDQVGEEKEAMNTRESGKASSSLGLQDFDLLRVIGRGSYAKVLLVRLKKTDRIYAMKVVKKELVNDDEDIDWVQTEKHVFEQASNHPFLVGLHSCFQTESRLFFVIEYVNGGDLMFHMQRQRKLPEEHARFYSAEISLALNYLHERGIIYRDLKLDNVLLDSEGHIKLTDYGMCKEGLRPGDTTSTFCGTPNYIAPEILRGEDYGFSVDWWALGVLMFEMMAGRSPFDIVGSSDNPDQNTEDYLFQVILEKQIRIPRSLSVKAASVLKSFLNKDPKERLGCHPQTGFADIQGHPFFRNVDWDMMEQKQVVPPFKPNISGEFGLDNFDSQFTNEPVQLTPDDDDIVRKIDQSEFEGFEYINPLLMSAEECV
The experiment in a line: PKCι IC50 IMAP fluorescence polarisation assay, full-length enzyme. The class given is biochemical. Particulars: full length PKCi at 15 μM ATP; read-out: IC50 in IMAP assay against full length PKCi. In general terms: Fluorescence polarisation rises when a labelled molecule tumbles more slowly, as on binding a larger partner.

SMILES strings stand for the structures. Some results are limits rather than exact numbers.

From US10183950B2, “Thienopyrimidine inhibitors of atypical protein kinase C” (Cancer Research Technology Limited, priority 2011, dated 2019) come the findings set out here.

One may read the IC50 as the concentration needed to halve the response being measured.

Turning to `N[C@H](CNc1nc(-c2cc[n+]([O-])cc2)nc2c(-c3ccn[nH]3)csc12)Cc1ccccc1` [compound 565, (S)—N*1*-[2-(1-Oxy-pyridin-4-yl)-7-(2H-pyrazol-3-yl)-thieno[3,2-d]pyrimidin-4-yl]-3-phenyl-propane-1,2-diamine], the IC50 is 1000 to 10000 nM.

For the compound `Nc1csc2c(NC[C@@H](N)Cc3ccccc3)nc(-c3ccncc3)nc12` [compound 566, N*4*-((S)-2-Amino-3-phenyl-propyl)-2-pyridin-4-yl-thieno[3,2-d]pyrimidine-4,7-diamine], the IC50 is 100 to 1000 nM.

Regarding `Nc1csc2c(N[C@@H]3CCNC3)nc(-c3ccncc3)nc12` [compound 567, 2-Pyridin-4-yl-N*4*-(R)-pyrrolidin-3-yl-thieno[3,2-d]pyrimidine-4,7-diamine], the concentration for half-maximal inhibition (IC50) was in the range of 1000 to 10000 nM. For the compound `Cc1cc(-c2csc3c(NC[C@@H](N)Cc4ccccc4)nc(-c4ccncc4)nc23)no1` [compound 568, (S)-N*1*-[7-(5-Methyl-isoxazol-3-yl)-2-pyridin-4-yl-thieno[3,2-d]pyrimidin-4-yl]-3-phenyl-propane-1,2-diamine], the 50% inhibitory concentration (IC50) was in the range of 100 to 1000 nM. With `Cc1cc(-c2csc3c(NC[C@@H](N)Cc4ccccc4)nc(-c4ccncc4)nc23)n[nH]1` [compound 569, (S)-N*1*-[7-(5-Methyl-1H-pyrazol-3-yl)-2-pyridin-4-yl-thieno[3,2-d]pyrimidin-4-yl]-3-phenyl-propane-1,2-diamine] the figure was less than 100 nM; with `CCc1cc(-c2csc3c(NC[C@@H](N)Cc4ccccc4)nc(-c4ccncc4)nc23)no1` [compound 570, (S)-N*1*-[7-(5-Ethyl-isoxazol-3-yl)-2-pyridin-4-yl-thieno[3,2-d]pyrimidin-4-yl]-3-phenyl-propane-1,2-diamine], 1000 to 10000 nM; with `CCc1cc(-c2csc3c(NC[C@@H](N)Cc4ccccc4)nc(-c4ccncc4)nc23)[nH]n1` [compound 571, (S)-N*1*-[7-(5-Ethyl-2H-pyrazol-3-yl)-2-pyridin-4-yl-thieno[3,2-d]pyrimidin-4-yl]-3-phenyl-propane-1,2-diamine], less than 100 nM.

Take `N[C@H](CNc1nc(-c2ccncc2)nc2c(-c3ccon3)csc12)Cc1ccccc1` [compound 572, (S)-N*1*-(7-Isoxazol-3-yl-2-pyridin-4-yl-thieno[3,2-d]pyrimidin-4-yl)-3-phenyl-propane-1,2-diamine]: the IC50 fell in the range of 100 to 1000 nM. With `c1ccc(Nc2cc(-c3nc(N[C@@H]4CCNC4)c4sccc4n3)ccn2)cc1` [compound 573, [2-(2-Phenylamino-pyridin-4-yl)-thieno[3,2-d]pyrimidin-4-yl]-(R)-pyrrolidin-3-yl-amine] the figure was 1000 to 10000 nM; with `O=C(Nc1cc(-c2nc(N[C@@H]3CCNC3)c3sccc3n2)ccn1)c1ccco1` [compound 574, Furan-2-carboxylic acid {4-[4-((R)-pyrrolidin-3-ylamino)-thieno[3,2-d]pyrimidin-2-yl]-pyridin-2-yl}-amide], 1000 to 10000 nM. With `O=C(Nc1ccccc1)Nc1cc(-c2nc(N[C@@H]3CCNC3)c3sccc3n2)ccn1` [compound 575, 1-Phenyl-3-{4-[4-((R)-pyrrolidin-3-ylamino)-thieno[3,2-d]pyrimidin-2-yl]-pyridin-2-yl}-urea] the figure was 100 to 1000 nM; with `O=S(=O)(Nc1cc(-c2nc(N[C@@H]3CCNC3)c3sccc3n2)ccn1)c1ccccc1` [compound 576, N-{4-[4-((R)-Pyrrolidin-3-ylamino)-thieno[3,2-d]pyrimidin-2-yl]-pyridin-2-yl}-benzenesulfonamide], 10000 to 40000 nM; with `c1cnc(Nc2cc(-c3nc(N[C@@H]4CCNC4)c4sccc4n3)ccn2)cn1` [compound 577, {2-[2-(Pyrazin-2-ylamino)-pyridin-4-yl]-thieno[3,2-d]pyrimidin-4-yl}-(R)-pyrrolidin-3-yl-amine], 100 to 1000 nM. Turning to `O=C(Nc1cc(-c2nc(N[C@@H]3CCNC3)c3sccc3n2)ccn1)[C@@H]1CCCO1` [compound 578, (S)-Tetrahydro-furan-2-carboxylic acid {4-[4-((R)-pyrrolidin-3-ylamino)-thieno[3,2-d]pyrimidin-2-yl]-pyridin-2-yl}-amide], the half-inhibitory concentration (IC50) was in the range of 100 to 1000 nM. The result for `Fc1cnc(Nc2ccccc2)cc1-c1nc(N[C@@H]2CCNC2)c2sccc2n1` [compound 579, [2-(5-Fluoro-2-phenylamino-pyridin-4-yl)-thieno[3,2-d]pyrimidin-4-yl]-(R)-pyrrolidin-3-yl-amine] reads 1000 to 10000 nM. The result for `Fc1cnc(Nc2cnccn2)cc1-c1nc(N[C@@H]2CCNC2)c2sccc2n1` [compound 580, {2-[5-Fluoro-2-(pyrazin-2-ylamino)-pyridin-4-yl]-thieno[3,2-d]pyrimidin-4-yl}-(R)-pyrrolidin-3-yl-amine] reads 100 to 1000 nM; that for `CN(C)C(=O)Nc1cc(-c2nc(N[C@@H]3CCNC3)c3sccc3n2)ccn1` [compound 581, 1,1-Dimethyl-3-{4-[4-((R)-pyrrolidin-3-ylamino)-thieno[3,2-d]pyrimidin-2-yl]-pyridin-2-yl}-urea], 1000 to 10000 nM; that for `CC(C)(C)NC(=O)Nc1cc(-c2nc(N[C@@H]3CCNC3)c3sccc3n2)ccn1` [compound 582, 1-tert-Butyl-3-{4-[4-((R)-pyrrolidin-3-ylamino)-thieno[3,2-d]pyrimidin-2-yl]-pyridin-2-yl}-urea], 1000 to 10000 nM. The result for `CNC(=O)Nc1cc(-c2nc(N[C@@H]3CCNC3)c3sccc3n2)ccn1` [compound 583, 1-Methyl-3-{4-[4-((R)-pyrrolidin-3-ylamino)-thieno[3,2-d]pyrimidin-2-yl]-pyridin-2-yl}-urea] reads 1000 to 10000 nM. Regarding `O=C(Nc1cc(-c2nc(N[C@@H]3CCNC3)c3sccc3n2)ccn1)N1CCCCC1` [compound 584, Piperidine-1-carboxylic acid {4-[4-((R)-pyrrolidin-3-ylamino)-thieno[3,2-d]pyrimidin-2-yl]-pyridin-2-yl}-amide], the 50% inhibitory concentration (IC50) was 1000 to 10000 nM.

For the compound `Fc1c(-c2nc(N[C@@H]3CCNC3)c3sccc3n2)ccnc1Nc1cnccn1` [compound 585, {2-[3-Fluoro-2-(pyrazin-2-ylamino)-pyridin-4-yl]-thieno[3,2-d]pyrimidin-4-yl}-(R)-pyrrolidin-3-yl-amine], the IC50 fell in the range of 1000 to 10000 nM. With `C[C@@H](Nc1cc(-c2nc(N[C@@H]3CCNC3)c3sccc3n2)ccn1)c1ccccc1` [compound 586, {2-[2-((R)-1-Phenyl-ethylamino)-pyridin-4-yl]-thieno[3,2-d]pyrimidin-4-yl}-(R)-pyrrolidin-3-yl-amine] the figure was 100 to 1000 nM; with `C[C@H](Nc1cc(-c2nc(N[C@@H]3CCNC3)c3sccc3n2)ccn1)c1ccccc1` [compound 587, {2-[2-((S)-1-Phenyl-ethylamino)-pyridin-4-yl]-thieno[3,2-d]pyrimidin-4-yl}-(R)-pyrrolidin-3-yl-amine], 100 to 1000 nM; with `Cc1ccc(Nc2cc(-c3nc(N[C@@H]4CCNC4)c4sccc4n3)ccn2)nn1` [compound 588, {2-[2-(6-Methyl-pyridazin-3-ylamino)-pyridin-4-yl]-thieno[3,2-d]pyrimidin-4-yl}-(R)-pyrrolidin-3-yl-amine], 100 to 1000 nM.

Regarding `CC[C@H](Nc1cc(-c2nc(N[C@@H]3CCNC3)c3sccc3n2)ccn1)c1ccccc1` [compound 589, {2-[2-((S)-1-Phenyl-propylamino)-pyridin-4-yl]-thieno[3,2-d]pyrimidin-4-yl}-(R)-pyrrolidin-3-yl-amine], the concentration for half-maximal inhibition (IC50) was 1000 to 10000 nM. With `CC[C@@H](Nc1cc(-c2nc(N[C@@H]3CCNC3)c3sccc3n2)ccn1)c1ccccc1` [compound 590, {2-[2-((R)-1-Phenyl-propylamino)-pyridin-4-yl]-thieno[3,2-d]pyrimidin-4-yl}-(R)-pyrrolidin-3-yl-amine] the figure was 1000 to 10000 nM; with `C[C@H](O)CNc1cc(-c2nc(N[C@@H]3CCNC3)c3sccc3n2)ccn1` [compound 591, (S)-1-{4-[4-((R)-Pyrrolidin-3-ylamino)-thieno[3,2-d]pyrimidin-2-yl]-pyridin-2-ylamino}-propan-2-ol], 1000 to 10000 nM. With `C[C@@H](O)CNc1cc(-c2nc(N[C@@H]3CCNC3)c3sccc3n2)ccn1` [compound 592, (R)-1-{4-[4-((R)-Pyrrolidin-3-ylamino)-thieno[3,2-d]pyrimidin-2-yl]-pyridin-2-ylamino}-propan-2-ol] the figure was 1000 to 10000 nM; with `O[C@@H](CNc1cc(-c2nc(N[C@@H]3CCNC3)c3sccc3n2)ccn1)c1ccccc1` [compound 593, (R)-1-Phenyl-2-{4-[4-((R)-pyrrolidin-3-ylamino)-thieno[3,2-d]pyrimidin-2-yl]-pyridin-2-ylamino}-ethanol], 1000 to 10000 nM. Consider `c1cc(-c2nc(N[C@@H]3CCNC3)c3sccc3n2)cc(NC2CC2)n1` [compound 594, [2-(2-Cyclopropylamino-pyridin-4-yl)-thieno[3,2-d]pyrimidin-4-yl]-(R)-pyrrolidin-3-yl-amine], for which the half-maximal inhibitory concentration (IC50) fell in the range of 1000 to 10000 nM. With `O=C(Nc1cc(-c2nc(N[C@@H]3CCNC3)c3sccc3n2)ccn1)c1cccs1` [compound 595, Thiophene-2-carboxylic acid {4-[4-((R)-pyrrolidin-3-ylamino)-thieno[3,2-d]pyrimidin-2-yl]-pyridin-2-yl}-amide], the IC50 lay in the range of 100 to 1000 nM.
